Columns and labels:
Assay type in all cases: functional
[1] = Vasorelaxing activity was determined
[2] = Vasorelaxing activity in the presence of eserin was determined
[3] = biological target: T1, Type-1 angiotensin II receptor (Homo sapiens) (UniProt P30556); assay: Antagonistic activity against Angiotensin II receptor type 1
T1 sequence (whole entry): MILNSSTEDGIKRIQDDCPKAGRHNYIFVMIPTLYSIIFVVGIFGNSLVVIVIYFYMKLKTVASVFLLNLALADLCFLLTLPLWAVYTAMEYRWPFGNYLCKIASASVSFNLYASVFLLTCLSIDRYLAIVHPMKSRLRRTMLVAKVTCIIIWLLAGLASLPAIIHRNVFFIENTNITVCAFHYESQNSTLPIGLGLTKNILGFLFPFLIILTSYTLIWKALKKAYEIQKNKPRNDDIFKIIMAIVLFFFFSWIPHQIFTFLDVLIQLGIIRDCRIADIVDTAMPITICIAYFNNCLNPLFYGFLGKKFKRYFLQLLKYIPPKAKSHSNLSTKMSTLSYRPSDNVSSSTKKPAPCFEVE

[4] = Nitric oxide releasing effect was determined
[5] = biological target: T1, Type-1 angiotensin II receptor (Homo sapiens); assay: Antagonistic activity against Angiotensin II receptor type 1 in presence of eserin

O=C(O)c1cccc(CO[N+](=O)[O-])c1
Efficacy [1]: 67% | Efficacy [2]: 71

CCCCc1nc(Cl)c(COC(=O)CCCCO[N+](=O)[O-])n1Cc1ccc(-c2ccccc2-c2nn[nH]n2)cc1
Kb [3]: 16 nM | Efficacy [1]: 95% | Efficacy [4]: 23

CCCCc1nc(Cl)c(COC(=O)c2cccc(CO[N+](=O)[O-])c2)n1Cc1ccc(-c2ccccc2-c2nn[nH]n2)cc1
Kb [3]: 6 nM | Kb [5]: 40 nM | Efficacy [1]: 92% | Efficacy [4]: 34 | Efficacy [2]: 91

Reference: ChEMBL document CHEMBL1138805, “NO-sartans: a new class of pharmacodynamic hybrids as cardiovascular drugs” (J Med Chem, 2004)
